Test results from patent publication US20220249599A1, “TREATMENT OF IMPLANTS WITH ENGINEERED ANTIMICROBIAL AMPHIPHILIC PEPTIDES” (priority 2018, published 2022).
Like-named read-outs stand apart in the source and are kept apart here. Ends that are not written are not given here.

Tests used:
[1] = tested on: Enterobacter spp. (n = 102); assay type: cell-based, Enterobacter aerogenes and E. cloacae
Procedure: The clinical isolates were obtained from USA hospitals. […] Plates were incubated at 35° C. overnight.

[2] = tested on: Enterococcus faecium (n = 104); test: microbe, parasite or virus in culture; settings: n = 104
Procedure: Comparator antibiotics were supplied by Micromyx, and stock solutions were prepared on the first day of testing using solvents recommended by CLSI (1). Stock solutions of all compounds were made at 40× the final testing concentration and stored at −80° C. prior to testing. Information regarding compound source, catalog and lot number, testing concentrations and drug diluent for the comparators and test agent are detailed below in Table 3.
The test organisms evaluated in this study consisted of clinical isolates from the Micromyx Repository and reference isolates from the American Type Culture Collection (ATCC; Manassas, Va.). The clinical isolates were obtained from USA hospitals. Upon initial receipt at Micromyx, the organisms were sub-cultured onto an appropriate agar medium. Following incubation, colonies were harvested from these plates and cell suspensions prepared and frozen at −80° C. with a cryoprotectant. Prior to testing, the isolates were streaked from frozen vials onto Trypticase Soy Agar with 5% sheep blood (Becton Dickenson [BD]; Sparks, MD; Lot Nos. 7173618, 7166759, 7208688, 72144895, 7228505 and Remel Lenexa, Kans. Lot No. 212574). Plates were incubated at 35° C. overnight.
Mueller Hinton II broth (MHB II; BD; Lot Nos. 6258541 and 7143896) was used for MIC testing of aerobic organisms.
MIC values were determined using a broth microdilution procedure described by CLSI (1, 3). Automated liquid handlers (Multidrop 384, Labsystems, Helsinki, Finland; Biomek 2000 and Biomek FX, Beckman Coulter, Fullerton Calif.) were used to conduct serial dilutions and liquid transfers.
To prepare the drug mother plates, which would provide the serial drug dilutions for the replicate daughter plates, the wells of columns 2-12 of standard 96-well microdilution plates (Costar 3795) were filled with 150 µl of the designated diluent for each row of drug. The test articles and comparator compounds ([…] at 40× the highest concentration to be tested) were dispensed into the appropriate wells in column 1. The Biomek 2000 was then used to make 2-fold serial dilutions in the mother plates from column 1 through column 11. The wells of Column 12 contained no drug and served as the organism growth control wells for the assay.
The daughter plates were loaded with […] per well of MHB II using the Multidrop 384. The daughter plates were completed on the Biomek FX instrument which transferred 5 µL of drug solution from each well of a mother plate to the corresponding well of each daughter plate in a single step. A standardized inoculum of each test organism was prepared per CLSI methods (1). The inoculum for each organism was dispensed into sterile reservoirs divided by length (Beckman Coulter), and the Biomek 2000 was used to inoculate the plates. Daughter plates were placed on the Biomek 2000 work surface in reverse orientation so that inoculation took place from low to high drug concentration.
Plates were stacked 3-4 high, covered with a lid on the top plate, placed in plastic bags, and incubated at 35° C. for 16 to 20 hrs. Following incubation, the microplates were removed from the incubator and viewed from the bottom using a plate viewer. […] The MIC was read and recorded as the lowest concentration of drug that inhibited visible growth of the organism.
Clinical breakpoints to determine percent resistance within a given organism group were obtained from CLSI (3), with the exception of colistin for K. pneumoniae, Enterobacter spp., and E. coli, which are only available from EUCAST.

[3] = rat; for AUCinf / AUClast / Cmax / Extrapolated / MRTlast / T1/2: Mean; for Tmax: individual animals
Procedure: Male Sprague-Dawley Rats will be received from an approved vendor with a single jugular vein cannula (JVC) and allowed to acclimate to the Test Facility for at least 2 days prior to study start. Animals will be weighed prior to dosing. No fasting will be required.
Intravenous administration will be via 30 minute infusion into a JVC. Following dosing, the catheter will be flushed with ˜0.5 mL saline and tied off to prevent re-access.
Serial blood samples will be collected via jugular vein cannula (JVC) or by another approved method if patency is lost. The final blood samples will be obtained via direct cardiac puncture following inhalation anesthesia.
Blood samples will be collected into K2EDTA tubes and stored on wet ice. Whole blood will be processed to plasma by centrifugation (3500 rpm at 5° C.) within 30 minutes of collection. Plasma samples will be transferred into 96 well plates (matrix tubes) and stored at −80° C. until analysis. Administered doses will be determined gravimetrically.
Prior to extraction, a known concentration of a mass-adjusted internal standard (IS) will be added to assess recovery and allow for quantitation. Purified samples will be further subjected to high-performance liquid chromatography (HPLC) using C18 300 or 130 angstrom columns prior to MS/MS analysis. Multiple charge states will be observed by MS, so MS/MS will be employed to enable multiple reaction monitoring (MRM) analyses to determine the most MRM transitions with the highest signal-to-noise gain. Compound plasma concentrations will be determined by comparing to and compensating with co-purified IS peak intensity and validated calibrated standard curves.
Pharmacokinetic parameters will be calculated using non-compartmental methods as implemented in the Phoenix® WinNonlin® ver. 6.3 comprehensive TK/PK analysis software program (Pharsight Corporation; Mountain View, Calif.) using an IV infusion model. Pharmacokinetic analysis will be conducted using a 30-minute intravenous infusion time. Therefore, 30 minutes will be added to each sample time point postdose to obtain nominal time for TK analysis. Nominal times and dosage levels will be used for all calculations. Values below the lower limit of quantitation (BLQ) will be assigned a value of zero for the pharmacokinetic calculations. Microsoft® Excel® 2013 will be used for receipt of bioanalytical data, minor formatting, including setting BLQ values to “0”, transfer into WinNonlin® for PK analysis, and calculation of the mean when an approximated value will be excluded. All plasma concentration data from all animals will be included in the analysis. Graphical presentations will be performed using Microsoft® Excel® 2013.

RRWVRRVRRVWRRVVRVVRRWVRR-NH2 (C-terminus assumed) [SEQ ID NO: 1]
Mode (MIC) [1]: 16 mg/L | MIC50 [2]: 0.5 mg/L | MIC90 [2]: 1 mg/L | MIC range [2]: 0.25 to 2 mg/L | Mode (MIC) [2]: 1 mg/L | AUCinf ([3]; Group 4 IV infusion 10 mg/kg): 80.486 µg·h/mL | AUClast ([3]; Group 4 IV infusion 10 mg/kg): 80.339 µg·h/mL | Cmax ([3]; Group 4 IV infusion 10 mg/kg): 67.192 µg/mL | Extrapolated ([3]; Group 4 IV infusion 10 mg/kg): 0.186% | MRTlast ([3]; Group 4 IV infusion 10 mg/kg): 1.18 h | T1/2 ([3]; Group 4 IV infusion 10 mg/kg): 4.07 h | Tmax ([3]; Group 4 IV infusion 10 mg/kg): 0.5333 h | AUCinf ([3]; IV infusion 1 mg/kg): 0.787 µg·h/mL | AUClast ([3]; IV infusion 1 mg/kg): 0.757 µg·h/mL | Cmax ([3]; IV infusion 1 mg/kg): 1.271 µg/mL | Extrapolated ([3]; IV infusion 1 mg/kg): 3.28% | MRTlast ([3]; IV infusion 1 mg/kg): 1.67 h | T1/2 ([3]; IV infusion 1 mg/kg): 6.16 h | Tmax ([3]; IV infusion 1 mg/kg): 0.5333 h | AUCinf ([3]; IV infusion 5 mg/kg): 25.791 µg·h/mL | AUClast ([3]; IV infusion 5 mg/kg): 25.683 µg·h/mL | Cmax ([3]; IV infusion 5 mg/kg): 30.409 µg/mL | Extrapolated ([3]; IV infusion 5 mg/kg): 0.424% | MRTlast ([3]; IV infusion 5 mg/kg): 1.03 h | T1/2 ([3]; IV infusion 5 mg/kg): 5.43 h | Tmax ([3]; IV infusion 5 mg/kg): 0.5333 h
